Source: patent US11208400B2, “Substituted 6-(1H-pyrazol-1-yl)pyrimidin-4-amine derivatives and uses thereof” (Bayer Aktiengesellschaft, priority 2016, dated 2021)
Structures can show the parent of a compound that is named as a salt.

The molecules below were run against T1, human Npt2a (Homo sapiens, UniProt Q06495) (assay: Npt2a activity cell based assay, membrane potential dye, CHO T-REx hNpt2a cells). Conditions: doxycycline-induced, depolarization by sodium phosphate influx, average or median values if tested more than once.
T1 construct: expressed in transfected cells
T1 sequence (Q06495 1-639): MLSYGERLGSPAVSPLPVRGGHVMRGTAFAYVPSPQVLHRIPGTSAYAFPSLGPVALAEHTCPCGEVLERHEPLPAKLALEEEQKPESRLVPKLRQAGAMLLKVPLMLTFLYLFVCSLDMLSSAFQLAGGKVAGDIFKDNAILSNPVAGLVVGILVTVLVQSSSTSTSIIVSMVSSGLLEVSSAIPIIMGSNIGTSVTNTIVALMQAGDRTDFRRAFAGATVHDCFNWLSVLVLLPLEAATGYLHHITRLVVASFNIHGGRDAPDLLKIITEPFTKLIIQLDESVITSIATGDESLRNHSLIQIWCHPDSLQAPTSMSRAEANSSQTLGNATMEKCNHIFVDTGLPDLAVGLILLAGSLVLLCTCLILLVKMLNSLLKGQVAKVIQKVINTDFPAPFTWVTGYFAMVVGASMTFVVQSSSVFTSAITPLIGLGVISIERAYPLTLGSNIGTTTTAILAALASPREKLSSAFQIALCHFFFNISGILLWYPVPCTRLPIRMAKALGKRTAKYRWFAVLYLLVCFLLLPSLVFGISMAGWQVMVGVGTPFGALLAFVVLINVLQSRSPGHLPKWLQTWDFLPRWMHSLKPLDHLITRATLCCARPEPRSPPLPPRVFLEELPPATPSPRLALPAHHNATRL
Outline: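 Doxycycline-induced (0.5 μg/mL, 24 h) CHO T-REx cells were loaded with membrane potential dye in sodium-free NHE buffer (pH 7.4) and exposed to compound (50 μM–1 nM, 5 min, room temperature).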

| Compound | IC50 [nM] |
| --- | --- |
| Cc1nn(-c2cc(Nc3c(C)c(-c4ccc(C(F)(F)F)cc4)nn3C)ncn2)c(C)c1C(C)(C)O [Example 379, 2-{1-[6-({1,4-dimethyl-3-[4-(trifluoromethyl)phenyl]-1H-pyrazol-5-yl}amino)pyrimidin-4-yl]-3,5-dimethyl-1H-pyrazol-4-yl}propan-2-ol] | 880 |
| Cc1nn(-c2cc(Nc3c(C)c(-c4ccc(F)cc4)nn3CC3CC3)ncn2)c(C)c1C(C)O (single isomer, unassigned) [Example 329, 1-[1-(6-{[1-(cyclopropylmethyl)-3-(4-fluorophenyl)-4-methyl-1H-pyrazol-5-yl]amino}pyrimidin-4-yl)-3,5-dimethyl-1H-pyrazol-4-yl]ethanol] | 67 |
| Cc1nn(-c2cc(Nc3c(C)c(-c4ccc(F)cc4)nn3CC3CC3)ncn2)c(C)c1N [Example 484, 6-(4-amino-3,5-dimethyl-1H-pyrazol-1-yl)-N-[1-(cyclopropylmethyl)-3-(4-fluorophenyl)-4-methyl-1H-pyrazol-5-yl]pyrimidin-4-amine trifluoroacetate] | 36 |
| CCc1c(Nc2cc(-n3nc(C)c(C4(O)CCC4)c3C)ncn2)nn(C)c1-c1ccc(F)cc1 [Example 215, 1-[1-(6-{[4-ethyl-5-(4-fluorophenyl)-1-methyl-1H-pyrazol-3-yl]amino}pyrimidin-4-yl)-3,5-dimethyl-1H-pyrazol-4-yl]cyclobutanol] | 250 |
| Cc1nn(-c2cc(Nc3c(C)c(-c4ccc(C(F)F)cc4)nn3CC3CC3)ncn2)c(C)c1C(O)C1CC1 (racemic) [Example 460, (±)-cyclopropyl {1-[6-({1-(cyclopropylmethyl)-3-[4-(difluoromethyl)phenyl]-4-methyl-1H-pyrazol-5-yl}amino)pyrimidin-4-yl]-3,5-dimethyl-1H-pyrazol-4-yl}methanol] | 98 |
| CCc1c(-c2ccc(F)cc2)nn(Cc2nnnn2C)c1Nc1cc(-n2nc(C)cc2C)ncn1 [Example 391, 6-(3,5-dimethyl-1H-pyrazol-1-yl)-N-{4-ethyl-3-(4-fluorophenyl)-1-[(1-methyl-1H-tetrazol-5-yl)methyl]-1H-pyrazol-5-yl}pyrimidin-4-amine] | 13 |
| Cc1nn(-c2cc(Nc3c(C)c(-c4ccc(C#N)cc4)nn3C)ncn2)c(C)c1C(C)(C)O [Example 298, 4-[5-({6-[4-(2-hydroxypropan-2-yl)-3,5-dimethyl-1H-pyrazol-1-yl]pyrimidin-4-yl}amino)-1,4-dimethyl-1H-pyrazol-3-yl]benzonitrile] | 17 |
| Cc1cc(C)n(-c2cc(Nc3c(C4CC4)c(-c4ccc(F)cc4)nn3C)ncn2)n1 [Example 43, N-[4-cyclopropyl-3-(4-fluorophenyl)-1-methyl-1H-pyrazol-5-yl]-6-(3,5-dimethyl-1H-pyrazol-1-yl)pyrimidin-4-amine] | 144 |
| Cc1nn(-c2cc(Nc3n[nH]c(-c4ccc(C#N)cc4)c3C)ncn2)c(C)c1Cl [Example 137, 4-(3-{[6-(4-chloro-3,5-dimethyl-1H-pyrazol-1-yl)pyrimidin-4-yl]amino}-4-methyl-1H-pyrazol-5-yl)benzonitrile] | 71 |
| CCc1c(-c2ccc(F)cc2)nn(C2CC2)c1Nc1cc(-n2nc(C)c(Cl)c2C)ncn1 [Example 120, 6-(4-chloro-3,5-dimethyl-1H-pyrazol-1-yl)-N-[1-cyclopropyl-4-ethyl-3-(4-fluorophenyl)-1H-pyrazol-5-yl]pyrimidin-4-amine] | 1450 |
| Cc1nn(-c2cc(Nc3c(Cl)c(-c4ccc(F)cc4)nn3C)ncn2)c(C)c1Cl [Example 88, 6-(4-chloro-3,5-dimethyl-1H-pyrazol-1-yl)-N-[4-chloro-3-(4-fluorophenyl)-1-methyl-1H-pyrazol-5-yl]pyrimidin-4-amine] | 28.5 |
| COCCc1c(Nc2cc(-n3nc(C)cc3C)ncn2)n[nH]c1-c1ccc(F)cc1 [Example 38, 6-(3,5-dimethyl-1H-pyrazol-1-yl)-N-[5-(4-fluorophenyl)-4-(2-methoxyethyl)-1H-pyrazol-3-yl]pyrimidin-4-amine] | 2350 |
| CCc1c(Nc2cc(-n3nc(C)c(C(=O)N4CCCC4C)c3C)ncn2)nn(C)c1-c1ccc(F)cc1 (single isomer, unassigned) [Example 106, [1-ent-(6-{[4-ethyl-5-(4-fluorophenyl)-1-methyl-1H-pyrazol-3-yl]amino}pyrimidin-4-yl)-3,5-dimethyl-1H-pyrazol-4-yl](2-methylpyrrolidin-1-yl)methanone] | 120 |
| CCc1c(-c2ccc(F)cc2)nn(CC2CC2)c1Nc1cc(-n2nc(C)cc2C)ncn1 [Example 121, N-[1-(cyclopropylmethyl)-4-ethyl-3-(4-fluorophenyl)-1H-pyrazol-5-yl]-6-(3,5-dimethyl-1H-pyrazol-1-yl)pyrimidin-4-amine] | < 1.6 |
| Cc1cc(C)n(-c2cc(Nc3c(C)c(-c4ccc(C#N)cc4)nn3CC3CC3)ncn2)n1 [Example 141, 4-[1-(cyclopropylmethyl)-5-{[6-(3,5-dimethyl-1H-pyrazol-1-yl)pyrimidin-4-yl]amino}-4-methyl-1H-pyrazol-3-yl]benzonitrile] | 3 |
| COc1c(C)nn(-c2cc(Nc3c(C)c(-c4ccc(C#N)cc4)nn3C)ncn2)c1C [Example 436, 4-(5-{[6-(4-methoxy-3,5-dimethyl-1H-pyrazol-1-yl)pyrimidin-4-yl]amino}-1,4-dimethyl-1H-pyrazol-3-yl)benzonitrile] | 10 |
| COc1c(Nc2cc(-n3nc(C)c(C(F)(F)F)c3C)ncn2)nn(C)c1-c1ccc(C#N)cc1 [Example 541, 4-[3-({6-[3,5-dimethyl-4-(trifluoromethyl)-1H-pyrazol-1-yl]pyrimidin-4-yl}amino)-4-methoxy-1-methyl-1H-pyrazol-5-yl]benzonitrile] | 260 |
| Cc1cc(C)n(-c2cc(Nc3nn(CCC4CC4)c(-c4ccc(C#N)cc4)c3C)ncn2)n1 [Example 212, 4-[1-(2-cyclopropylethyl)-3-{[6-(3,5-dimethyl-1H-pyrazol-1-yl)pyrimidin-4-yl]amino}-4-methyl-1H-pyrazol-5-yl]benzonitrile] | 1170 |
| Cc1nn(-c2cc(Nc3nn(C)c(-c4ccc(OC(F)(F)F)cc4)c3C)ncn2)c(C)c1Cl [Example 117, 6-(4-chloro-3,5-dimethyl-1H-pyrazol-1-yl)-N-{1,4-dimethyl-5-[4-(trifluoromethoxy)phenyl]-1H-pyrazol-3-yl}pyrimidin-4-amine] | 19 |
| Cc1cc(C(F)F)n(-c2cc(Nc3c(C)c(-c4ccc(C(F)F)cc4)nn3C)ncn2)n1 [Example 408, 6-[5-(difluoromethyl)-3-methyl-1H-pyrazol-1-yl]-N-{3-[4-(difluoromethyl)phenyl]-1,4-dimethyl-1H-pyrazol-5-yl}pyrimidin-4-amine] | 6 |
| COCCn1nc(-c2ccc(F)cn2)c(C)c1Nc1cc(-n2nc(C)c(C(=O)N(C)C)c2C)ncn1 [Example 557, 1-(6-{[3-(5-fluoropyridin-2-yl)-1-(2-methoxyethyl)-4-methyl-1H-pyrazol-5-yl]amino}pyrimidin-4-yl)-N,N,3,5-tetramethyl-1H-pyrazole-4-carboxamide] | 1000 |
| CCOC(=O)c1c(C)nn(-c2cc(Nc3n[nH]c(-c4ccc(F)cc4)c3C)ncn2)c1C [Example 60, ethyl 1-(6-{[5-(4-fluorophenyl)-4-methyl-1H-pyrazol-3-yl]amino}pyrimidin-4-yl)-3,5-dimethyl-1H-pyrazole-4-carboxylate] | 43 |
| Cc1cc(C)n(-c2cc(Nc3c(Cl)c(-c4ccc(F)cc4)nn3CC3CC3)ncn2)n1 [Example 187, N-[4-chloro-1-(cyclopropylmethyl)-3-(4-fluorophenyl)-1H-pyrazol-5-yl]-6-(3,5-dimethyl-1H-pyrazol-1-yl)pyrimidin-4-amine] | 10 |
| CCOC(=O)c1c(C)nn(-c2cc(Nc3c(C)c(-c4ccc(Cl)cc4)nn3CC3CC3)ncn2)c1C [Example 314, ethyl 1-(6-{[3-(4-chlorophenyl)-1-(cyclopropylmethyl)-4-methyl-1H-pyrazol-5-yl]amino}pyrimidin-4-yl)-3,5-dimethyl-1H-pyrazole-4-carboxylate] | 9 |
| CCOC(=O)c1c(C)nn(-c2cc(Nc3c(C)c(-c4ccc(OC(F)(F)F)cc4)nn3C)ncn2)c1C [Example 361, ethyl 1-[6-({1,4-dimethyl-3-[4-(trifluoromethoxy)phenyl]-1H-pyrazol-5-yl}amino)pyrimidin-4-yl]-3,5-dimethyl-1H-pyrazole-4-carboxylate] | 31 |
| Cc1nn(-c2cc(Nc3c(C)c(-c4ccc(C(F)F)nc4)nn3C)ncn2)c(C)c1Cl [Example 474, 6-(4-chloro-3,5-dimethyl-1H-pyrazol-1-yl)-N-{3-[6-(difluoromethyl)pyridin-3-yl]-1,4-dimethyl-1H-pyrazol-5-yl}pyrimidin-4-amine] | 234 |
| CCc1c(Nc2cc(-n3nc(C)c(C(=O)N4CCC4)c3C)ncn2)nn(C)c1-c1ccc(F)cc1 [Example 123, azetidin-1-yl[1-(6-{[4-ethyl-5-(4-fluorophenyl)-1-methyl-1H-pyrazol-3-yl]amino}pyrimidin-4-yl)-3,5-dimethyl-1H-pyrazol-4-yl]methanone] | 395 |
